The values that follow come from the NIST ThermoML archive (doi:10.1016/j.tca.2016.05.013).

± gives the expanded uncertainty stated by the source.

Series [1] in a line: refractive index (Na D-line) (dimensionless). Conditions: 86.8 kPa, Liquid, Standard Abbe refractometry.
The conditions of series [2]: 86.8 kPa, Liquid; for speed of sound: Frequency=3 MHz, Sing-around technique in a fixed-path interferometer; for mass density: Vibrating tube method.
The nature of series [3]: refractive index (Na D-line) (dimensionless); mn = molality of the nth substance listed, in mol/kg. Particulars: 86.8 kPa, Liquid, Standard Abbe refractometry, m2 = 0.

What is called refractive index is the speed of light in vacuum divided by its phase velocity in the sample. The term speed of sound denotes the propagation velocity of pressure waves in the medium. A word on the mass density: it is mass per unit of volume. `CCCCn1cc[n+](C)c1.O=C([O-])c1ccccc1O` [1-butyl-3-methylimidazolium salicylate]: the refractive index was 1.6503 ± 0.004 in series [1] (288.15 K), 1.647 ± 0.004 in series [1] (298.15 K), 1.6442 ± 0.004 in series [1] (308.15 K) and 1.6413 ± 0.004 in series [1] (318.15 K). Besides, the speed of sound was 1721.6 ± 2.4 m/s in series [2] (288.15 K), 1679.2 ± 2.4 m/s in series [2] (298.15 K), 1640.9 ± 2.4 m/s in series [2] (308.15 K) and 1606.1 ± 2.4 m/s in series [2] (318.15 K). The mass density in series [2] (288.15 K) is 1155.72 ± 1.6 kg/m3; in series [2] (298.15 K), 1148.81 ± 1.6 kg/m3; in series [2] (308.15 K), 1142.02 ± 1.6 kg/m3; in series [2] (318.15 K), 1135.41 ± 1.6 kg/m3.
With `O` [water] + CCCCn1cc[n+](C)c1.O=C([O-])c1ccccc1O, the refractive index in series [3] (288.15 K) worked out at 1.3329 ± 0.004; in series [3] (298.15 K), 1.3323 ± 0.004; in series [3] (308.15 K), 1.3316 ± 0.004; in series [3] (318.15 K) it was 1.3305 ± 0.004.
